# How the values were obtained:
# [1] = biological target: T1, Glucocorticoid receptor (Homo sapiens, UniProt P04150); test: Displacement of radiolabeled Dexamethasone from human GR
# T1 sequence (P04150 whole entry): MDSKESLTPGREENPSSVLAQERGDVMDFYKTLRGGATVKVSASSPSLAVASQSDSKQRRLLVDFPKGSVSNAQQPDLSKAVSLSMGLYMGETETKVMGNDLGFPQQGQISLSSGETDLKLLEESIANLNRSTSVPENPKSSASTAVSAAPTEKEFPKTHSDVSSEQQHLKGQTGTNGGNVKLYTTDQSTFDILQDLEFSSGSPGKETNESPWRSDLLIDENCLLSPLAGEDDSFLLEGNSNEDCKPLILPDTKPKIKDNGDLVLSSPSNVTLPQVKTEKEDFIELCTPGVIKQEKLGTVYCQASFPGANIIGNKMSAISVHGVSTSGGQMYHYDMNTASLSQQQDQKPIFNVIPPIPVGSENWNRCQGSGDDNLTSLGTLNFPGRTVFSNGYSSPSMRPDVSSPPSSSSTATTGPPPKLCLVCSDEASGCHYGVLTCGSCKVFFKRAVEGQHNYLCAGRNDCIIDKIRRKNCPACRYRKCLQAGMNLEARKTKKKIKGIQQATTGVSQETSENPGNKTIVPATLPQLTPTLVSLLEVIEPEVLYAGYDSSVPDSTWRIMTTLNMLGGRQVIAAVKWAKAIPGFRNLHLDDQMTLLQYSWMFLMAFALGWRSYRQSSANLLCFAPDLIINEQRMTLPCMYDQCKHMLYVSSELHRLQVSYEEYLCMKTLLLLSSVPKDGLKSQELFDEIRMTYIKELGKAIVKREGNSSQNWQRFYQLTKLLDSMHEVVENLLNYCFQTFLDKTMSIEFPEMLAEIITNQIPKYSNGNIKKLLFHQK
# [2] = biological target: T2, Androgen receptor (Homo sapiens, UniProt P10275)
# T2 sequence (P10275 whole entry): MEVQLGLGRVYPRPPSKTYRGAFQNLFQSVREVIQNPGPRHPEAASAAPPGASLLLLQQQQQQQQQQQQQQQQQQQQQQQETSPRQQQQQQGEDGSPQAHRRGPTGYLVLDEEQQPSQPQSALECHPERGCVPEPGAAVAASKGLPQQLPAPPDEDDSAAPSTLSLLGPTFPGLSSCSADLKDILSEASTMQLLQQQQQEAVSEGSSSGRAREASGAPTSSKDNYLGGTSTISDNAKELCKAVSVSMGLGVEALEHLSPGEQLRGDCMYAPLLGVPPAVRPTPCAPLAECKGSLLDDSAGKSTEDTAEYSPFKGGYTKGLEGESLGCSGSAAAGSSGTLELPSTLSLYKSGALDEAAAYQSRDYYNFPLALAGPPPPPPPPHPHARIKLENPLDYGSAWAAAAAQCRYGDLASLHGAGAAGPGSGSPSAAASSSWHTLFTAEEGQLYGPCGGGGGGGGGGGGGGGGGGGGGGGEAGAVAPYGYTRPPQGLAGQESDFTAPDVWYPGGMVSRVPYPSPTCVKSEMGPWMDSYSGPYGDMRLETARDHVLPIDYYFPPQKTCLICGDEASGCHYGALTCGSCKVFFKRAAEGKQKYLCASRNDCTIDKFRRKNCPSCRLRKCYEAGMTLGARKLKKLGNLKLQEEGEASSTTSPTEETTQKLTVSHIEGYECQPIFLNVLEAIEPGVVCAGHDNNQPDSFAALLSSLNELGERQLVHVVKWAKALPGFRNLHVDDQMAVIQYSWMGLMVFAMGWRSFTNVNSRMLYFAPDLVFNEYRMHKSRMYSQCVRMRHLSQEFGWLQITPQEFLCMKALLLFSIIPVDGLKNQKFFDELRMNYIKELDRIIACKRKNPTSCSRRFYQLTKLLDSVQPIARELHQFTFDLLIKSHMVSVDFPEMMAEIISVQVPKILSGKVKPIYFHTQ
# Description: Antagonist activity at human androgen receptor expressed in CV1 cells by transcriptional activation assay
# [3] = biological target: T3, Progesterone receptor (Homo sapiens, UniProt P06401)
# T3 sequence (P06401 whole entry): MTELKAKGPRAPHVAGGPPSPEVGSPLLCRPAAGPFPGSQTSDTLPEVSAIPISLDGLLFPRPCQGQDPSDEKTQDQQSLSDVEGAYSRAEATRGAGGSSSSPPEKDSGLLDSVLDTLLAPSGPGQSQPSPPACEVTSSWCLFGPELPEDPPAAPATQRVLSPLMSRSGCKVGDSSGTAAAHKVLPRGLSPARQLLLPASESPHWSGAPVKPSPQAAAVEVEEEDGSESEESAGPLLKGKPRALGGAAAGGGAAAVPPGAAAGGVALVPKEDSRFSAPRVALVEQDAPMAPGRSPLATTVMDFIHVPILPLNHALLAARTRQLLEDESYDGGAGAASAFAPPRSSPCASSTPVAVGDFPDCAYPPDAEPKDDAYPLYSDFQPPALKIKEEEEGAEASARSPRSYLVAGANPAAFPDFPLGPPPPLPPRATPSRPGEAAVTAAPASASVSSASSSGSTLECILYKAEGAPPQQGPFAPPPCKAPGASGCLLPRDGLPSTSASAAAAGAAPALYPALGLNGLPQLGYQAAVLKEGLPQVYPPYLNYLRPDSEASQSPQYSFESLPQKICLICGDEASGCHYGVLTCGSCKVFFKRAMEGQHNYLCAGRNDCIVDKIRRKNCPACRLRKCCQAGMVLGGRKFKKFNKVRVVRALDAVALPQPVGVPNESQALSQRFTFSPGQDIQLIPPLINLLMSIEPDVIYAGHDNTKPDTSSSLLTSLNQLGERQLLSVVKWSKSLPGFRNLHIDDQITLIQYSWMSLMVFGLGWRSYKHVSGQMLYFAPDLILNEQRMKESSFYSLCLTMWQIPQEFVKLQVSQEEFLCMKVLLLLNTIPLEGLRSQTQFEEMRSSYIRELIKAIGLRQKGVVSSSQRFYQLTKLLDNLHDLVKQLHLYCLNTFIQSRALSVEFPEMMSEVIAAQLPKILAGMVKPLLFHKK
# Description: Displacement of [3H]progesterone from human PRA
# [4] = biological target: T4, Mineralocorticoid receptor (Homo sapiens, UniProt P08235)
# T4 sequence (P08235 whole entry): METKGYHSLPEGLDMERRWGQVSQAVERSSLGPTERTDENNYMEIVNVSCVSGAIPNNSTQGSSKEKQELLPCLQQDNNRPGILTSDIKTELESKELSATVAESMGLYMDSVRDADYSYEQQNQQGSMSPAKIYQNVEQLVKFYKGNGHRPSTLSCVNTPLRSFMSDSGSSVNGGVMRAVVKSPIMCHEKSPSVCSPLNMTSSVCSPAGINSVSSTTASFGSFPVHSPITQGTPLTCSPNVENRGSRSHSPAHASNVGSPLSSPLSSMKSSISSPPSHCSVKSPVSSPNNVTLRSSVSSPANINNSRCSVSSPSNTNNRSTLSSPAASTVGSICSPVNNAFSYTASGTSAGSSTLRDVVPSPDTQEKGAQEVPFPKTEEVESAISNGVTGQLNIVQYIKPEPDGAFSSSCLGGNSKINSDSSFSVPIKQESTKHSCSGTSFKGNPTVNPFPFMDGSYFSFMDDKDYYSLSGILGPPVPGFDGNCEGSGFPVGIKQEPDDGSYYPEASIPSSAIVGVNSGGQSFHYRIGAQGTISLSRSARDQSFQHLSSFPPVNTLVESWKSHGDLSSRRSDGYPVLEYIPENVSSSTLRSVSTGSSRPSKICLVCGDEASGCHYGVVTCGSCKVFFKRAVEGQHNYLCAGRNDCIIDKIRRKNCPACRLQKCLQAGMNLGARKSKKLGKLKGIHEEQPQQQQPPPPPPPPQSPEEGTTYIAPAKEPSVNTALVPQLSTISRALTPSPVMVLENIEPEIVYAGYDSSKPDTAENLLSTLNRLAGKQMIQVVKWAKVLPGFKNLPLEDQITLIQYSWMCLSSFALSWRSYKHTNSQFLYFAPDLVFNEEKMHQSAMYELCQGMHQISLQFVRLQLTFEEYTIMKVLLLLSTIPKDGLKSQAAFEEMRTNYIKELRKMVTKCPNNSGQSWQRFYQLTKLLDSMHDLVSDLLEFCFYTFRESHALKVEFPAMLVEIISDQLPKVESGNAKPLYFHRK
# Description: Displacement of radiolabeled aldosterone from human MR
# [5] = biological target: T2, Androgen receptor; remark: listed apart in the source
# Description: Agonist activity at human androgen receptor expressed in CV1 cells by transcriptional activation assay
# [6] = biological target: T2, Androgen receptor; test: biochemical
# Description: Displacement of [3H]DHT from human AR expressed in MDA-MB-453 cells
# [7] = organism: Rattus norvegicus; conditions: dose 100 mg/kg; route oral
# [8] = organism: Rattus norvegicus; conditions: dose 100 mg/kg; route oral; remark: listed apart in the source
smiles,measurement,setting,value
CCN1CCOc2cc3[nH]c(=O)cc(C(F)(F)F)c3cc21,Ki,[1],8100 nM
same,IC50,[2],> 10000 nM
same,Ki,[3],5200 nM
same,Ki,[4],> 10000 nM
CC(C)[C@@H]1COc2cc3[nH]c(=O)cc(C(F)(F)F)c3cc2N1CC(F)(F)F,EC50,[5],5.9 nM
same,Ki,[6],51 nM
CN1CCOc2cc3[nH]c(=O)cc(C(F)(F)F)c3cc21,IC50,[2],> 10000 nM
CCCN1CCOc2cc3[nH]c(=O)cc(C(F)(F)F)c3cc21,IC50,[2],> 10000 nM
CC(C)CN1CCOc2cc3[nH]c(=O)cc(C(F)(F)F)c3cc21,EC50,[5],3.2 nM
same,Ki,[6],17 nM
CC(C)C[C@@H]1COc2cc3[nH]c(=O)cc(C(F)(F)F)c3cc2N1CC(F)(F)F,EC50,[5],27 nM
same,Ki,[6],109 nM
O=c1cc(C(F)(F)F)c2cc3c(cc2[nH]1)OC[C@H]1CCCN31,EC50,[5],26 nM
same,Ki,[6],27 nM
O=c1cc(C(F)(F)F)c2cc3c(cc2[nH]1)OCCN3CC(F)(F)F,Ki,[1],9200 nM
same,IC50,[2],> 10000 nM
same,Ki,[3],5300 nM
same,Ki,[4],> 10000 nM
O=c1cc(C(F)(F)F)c2cc3c(cc2[nH]1)OCCN3CC1CC1,Ki,[1],8800 nM
same,Ki,[3],2000 nM
same,Ki,[4],> 10000 nM
CC(C)(C)N1CCOc2cc3[nH]c(=O)cc(C(F)(F)F)c3cc21,EC50,[5],7.8 nM
same,IC50,[2],> 10000 nM
same,Ki,[6],48 nM
O=c1cc(C(F)(F)F)c2cc3c(cc2[nH]1)OCCN3Cc1ccccc1,EC50,[5],> 10000 nM
same,IC50,[2],224 nM
same,Ki,[6],206 nM
O=c1cc(C(F)(F)F)c2cc3c(cc2[nH]1)OCCN3,EC50,[5],> 10000 nM
same,IC50,[2],296 nM
same,Ki,[6],> 1000 nM
CCC1COc2cc3[nH]c(=O)cc(C(F)(F)F)c3cc2N1CC (racemic),EC50,[5],3.9 nM
same,Ki,[6],5.6 nM
O=c1cc(C(F)(F)F)c2cc3c(cc2[nH]1)OCC1CCCCN31 (racemic),Ki,[1],> 10000 nM
same,EC50,[5],14 nM
same,Ki,[3],> 10000 nM
same,Ki,[6],16 nM
CC1COc2cc3[nH]c(=O)cc(C(F)(F)F)c3cc2N1 (racemic),EC50,[5],133 nM
same,Ki,[6],113 nM
CCN1c2cc3c(C(F)(F)F)cc(=O)[nH]c3cc2OCC1C (racemic),EC50,[5],10 nM
same,Ki,[6],4.2 nM
CC1COc2cc3[nH]c(=O)cc(C(F)(F)F)c3cc2N1CC1CC1 (racemic),EC50,[5],1.9 nM
same,Ki,[6],4 nM
CC1CN(CC(F)(F)F)c2cc3c(C(F)(F)F)cc(=O)[nH]c3cc2O1 (racemic),Ki,[1],> 10000 nM
same,Ki,[3],7000 nM
same,Ki,[4],> 10000 nM
CCC1CN(C)c2cc3c(C(F)(F)F)cc(=O)[nH]c3cc2O1 (racemic),EC50,[5],52 nM
same,IC50,[2],67 nM
same,Ki,[6],58 nM
CC1CN(C)c2cc3c(C(F)(F)F)cc(=O)[nH]c3cc2O1 (racemic),EC50,[5],47 nM
same,Ki,[6],33 nM
CCC1CN(CC(F)(F)F)c2cc3c(C(F)(F)F)cc(=O)[nH]c3cc2O1 (racemic),EC50,[5],15 nM
same,IC50,[2],> 10000 nM
same,Ki,[6],30 nM
CCC1CN(CC)c2cc3c(C(F)(F)F)cc(=O)[nH]c3cc2O1 (racemic),EC50,[5],31 nM
same,IC50,[2],> 10000 nM
same,Ki,[6],34 nM
CCC1COc2cc3[nH]c(=O)cc(C(F)(F)F)c3cc2N1CC1CC1 (racemic),Ki,[1],> 10000 nM
same,EC50,[5],2.3 nM
same,Ki,[3],5400 nM
same,Ki,[6],23 nM
CC1CN(CC(F)(F)F)c2cc3c(C(F)(F)F)cc(=O)[nH]c3cc2O1 (stereo in doubt; (-)-10h),IC50,[2],> 10000 nM
C[C@]1(O)CC[C@H]2[C@@H]3CCC4=CC(=O)CC[C@]4(C)[C@@]3(F)[C@@H](O)C[C@@]21C [FLUOXYMESTERONE],Efficacy,[7],129%
same,Efficacy,[8],79%

# From ChEMBL document CHEMBL1139861, “Novel series of potent, nonsteroidal, selective androgen receptor modulators based on 7H-[1,4]oxazino[3,2-g]quinolin-7-ones” (J Med Chem, 2007)
